Assay results published in patent publication US20250066290A1, “DHODH INHIBITORS CONTAINING A CARBOXYLIC ACID BIOISOSTERE” (IMMUNIC AG, priority 2021, published 2025).
pEC50, pIC50: −log10 of the molar value. In brackets after ≈: the same amount, converted by molar mass. Read-outs that look alike come from different tables or passages of the source.

What was measured:
[1] = molecular target: N-terminally truncated recombinant hDHODH enzyme (Homo sapiens, UniProt Q02127); test: biochemical; type: biochemical
Procedure: Briefly, the hDHODH concentration was adjusted in a way that an average slope of approximately 0.2 AU/min served as the positive control (e.g. without inhibitor). The standard assay mixture contained 60 μM 2,6-dichloroindophenol, 50 μM decylubiquinone and 100 μM dihydroorotate. The hDHODH enzyme with or without at least six different concentrations of the compounds was added and measurements were performed in 50 mM TrisHCl, 150 mM KCl and 0.1% Triton X-100 at pH 8.0 and at 30° C. The reaction was started by adding dihydroorotate and measuring the absorption at 600 nm for 2 min. For the determination of the IC50 values, each data point was recorded in triplicate. […].

[2] = molecular target: human URAT1 uptake transporter (Homo sapiens (Human), UniProt Q96S37); test: Human URAT1 uptake transporter assay (MDCKII-URAT1-LV, SOLVO); type: cell-based; conditions: 10 μM compound, 20 μM uric acid probe substrate
Procedure: In the human URAT1 uptake transporter assay (host cell line: MDCKII), the accumulation of the probe substrate in the presence of a DHODH inhibitor (at a concentration of 10 μM) into cells was measured. The assay was executed at SOLVO with catalogue number MDCKII-URAT1-LV. 20 μM uric acid served as probe substrate. Reference inhibitor was benzbromarone at a concentration of 300 μM, which served as internal control.

SARS-CoV-2 = SARS-CoV-2 viral replication (YFP) assay; type: cell-based; conditions: Severe acute respiratory syndrome coronavirus 2, read-out: EC50 range
[3] = Mouse pharmacokinetics, male and female, cassette dosing; type: in vivo, mice (C57BL/6J); conditions: for AUC / Cmax / half-life: C57BL/6J, mouse, in vivo; for AUC: 0 to 24 h; for Cmax: 5 mg/kg oral, 1 mg/kg intravenous cassette; for F: bioavailability
Procedure: The pharmacokinetics of the compounds of the present invention was evaluated in 3 male and 3 female mice (C57BL/6J, 8 week old) after oral or intravenous cassette dosing to assess the oral bioavailability. Dose was 5 mg/kg (oral) and 1 mg/kg (intravenous), application volume was 5 mL/kg (oral) and 0.5 mL/kg (intravenous), vehicle was 5% solutol, 95% NaCl solution (at 0.9% saline concentration) for oral and 5% solutol, 5% ethanol, 90% NaCl solution (at 0.9% saline concentration) for intravenous. At each designated time point (0.5, 1, 2, 4, 8 and 24 h after dosing), 20 μL whole blood were collected from the tail vein into Li-heparin tubes, frozen on dry ice within 1-2 minutes of sampling and stored at −20° C. until processed for LC-MS analysis.

SARS-CoV-2 d6-YFP = test: Combinatorial drug assessment with EIDD-1931 by viral replication inhibition assay; type: cell-based
[4] = Kinetic aqueous solubility in PBS at pH 7.4; conditions: pH 7.4, aqueous buffer, kinetic from dmso stock
[5] = Partition coefficient log D (n-octanol/PBS at pH 7.4); type: physicochemical
Procedure: The total amount of compound was determined as the peak area of the principal peak in a calibration standard (100 μM) containing organic solvent (MeOH/water, 60/40 v/v). The amount of compound in buffer was determined as the combined, volume-corrected and weighted areas of the corresponding peaks in the aqueous phases of three organic-aqueous samples of different composition. An automated weighting system was used to ensure the preferred use of raw data from those samples with well quantifiable peak signals. The amount of compound in organic was calculated by subtraction.
Subsequently, the partition coefficient (log D, n-octanol/PBS at pH 7.4) was calculated as the Log10 of the amount of compound in the organic phase divided by the amount of compound in the aqueous phase (Eurofins Discovery Services Item #417).

human rhinovirus HRV-14 = test: Antiviral activity on human rhinovirus; type: cell-based; conditions: Rhinovirus B, HRV14
[6] = Cytotoxicity in human rhinovirus test
[7] = A-B and B-A permeability (Caco-2, pH 7.4/7.4); type: in vitro ADME, human; conditions: human; for recovery at 10 μM: Caco-2, Caco-2, 10 μM
Text: (§1) The Caco-2 cell line is a human colon adeno-carcinoma cell line that differentiates in culture and resembles the epithelial lining of the human small intestine. […]

[8] = pH 7.4
Caco-2 monolayer = test: A-B and B-A permeability (Caco-2, pH 7.4/7.4); type: in vitro ADME, human; conditions: Caco-2, pH 7.4
Text: as §1

[9] = Metabolic stability in human liver microsomes
Text: (§2) The metabolism was monitored by HPLC-MS/MS. Verapamil served as positive control.

RSV-A2 = test: Antiviral activity on RSV-A2 in Hep-2 cells; conditions: human respiratory syncytial virus, HEp-2, 48 h, read-out: RSV-A2 IC50
RSV-B = test: Antiviral activity on RSV-B in Hep-2 cells; type: cell-based; conditions: human respiratory syncytial virus, 48 h, two days after infection
Text: (§3) The following results were obtained:

[10] = Metabolic stability in rat liver microsomes; conditions: SD
Text: as §2

RSV-Long = test: Antiviral activity on RSV-Long in Hep-2 cells; type: cell-based; conditions: human respiratory syncytial virus, 48 h, two days after infection
Text: as §3

[11] = tested on: SARS-CoV-2 reporter virus d6-YFP (WT); test: microbe, parasite or virus in culture; type: cell-based; conditions: Severe acute respiratory syndrome coronavirus 2, Caco-2
[12] = Mouse pharmacokinetics, female, deuteration matched pair analysis; type: in vivo, mice (C57BL/6J)
Procedure: In another matched pair analysis the benefit of deuteration of the N-methoxyacetamide moiety was tested: the pharmacokinetic properties of the compounds were evaluated in 3 female mice (C57BL/6J, 8 week old) after oral or intravenous cassette dosing to assess the oral bioavailability. Dose was 5 mg/kg (oral) and 1 mg/kg (intravenous), application volume was 5 mL/kg (oral) and 2 mL/kg (intravenous), vehicle was 5% solutol, 95% NaCl solution (at 0.9% saline concentration) for oral and 5% solutol, 5% ethanol, 90% NaCl solution (at 0.9% saline concentration) for intravenous application. At each designated time point (0.25, 0.5, 1, 2, 4 and 8 h after dosing for oral; 0.083, 0.25, 0.5, 1, 4 and 8 h after dosing for intravenous), 20 μL whole blood were collected from the tail vein into Li-heparin tubes, frozen on dry ice within 1-2 minutes of sampling and stored at −20° C. until processed for LC-MS analysis.

in vitro [13] = type: cell-based; conditions: human
Text: as §3

in vitro [14] = test: in vitro
[15] = high vidofludimus doses; cited from earlier work
[16] = human DHODH assay, read-out: IC50 range
[17] = n-octanol/PBS at pH 7.4, read-out: logD

human URAT1 uptake transporter, sequence (Q96S37 whole entry): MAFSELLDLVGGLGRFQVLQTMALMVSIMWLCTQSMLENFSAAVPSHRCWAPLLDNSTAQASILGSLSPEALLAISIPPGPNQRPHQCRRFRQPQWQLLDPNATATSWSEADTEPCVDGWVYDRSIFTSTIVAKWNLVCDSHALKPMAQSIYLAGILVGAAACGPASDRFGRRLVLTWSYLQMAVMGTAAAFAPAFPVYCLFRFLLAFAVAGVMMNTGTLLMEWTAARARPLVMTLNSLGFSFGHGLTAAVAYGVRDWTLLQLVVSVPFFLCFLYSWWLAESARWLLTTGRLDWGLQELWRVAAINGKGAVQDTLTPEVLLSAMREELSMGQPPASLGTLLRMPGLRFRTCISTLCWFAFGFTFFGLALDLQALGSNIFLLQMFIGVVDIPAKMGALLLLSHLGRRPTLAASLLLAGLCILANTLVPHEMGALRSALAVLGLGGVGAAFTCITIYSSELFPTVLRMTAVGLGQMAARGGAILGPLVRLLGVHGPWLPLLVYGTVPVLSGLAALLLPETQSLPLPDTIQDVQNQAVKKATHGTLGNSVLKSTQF
N-terminally truncated recombinant hDHODH enzyme, sequence (Q02127 whole entry, looked up, the tested form may be a part): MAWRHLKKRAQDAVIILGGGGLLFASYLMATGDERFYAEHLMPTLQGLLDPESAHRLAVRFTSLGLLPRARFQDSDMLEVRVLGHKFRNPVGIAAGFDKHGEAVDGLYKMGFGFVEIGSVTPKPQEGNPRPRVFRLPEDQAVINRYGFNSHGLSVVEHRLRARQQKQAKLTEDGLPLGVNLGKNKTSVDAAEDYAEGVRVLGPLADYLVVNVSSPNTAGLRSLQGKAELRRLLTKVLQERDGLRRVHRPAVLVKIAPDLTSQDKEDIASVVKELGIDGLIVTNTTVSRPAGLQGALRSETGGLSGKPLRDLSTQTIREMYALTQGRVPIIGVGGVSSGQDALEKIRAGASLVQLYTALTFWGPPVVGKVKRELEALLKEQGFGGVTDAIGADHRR

Structure (SMILES): NS(=O)(=O)NC(=O)C1=C(C(=O)Nc2c(F)c(F)c(-c3cccc(OC(F)(F)F)c3)c(F)c2F)CCC1 [Example 2, N^1-Sulfamoyl-N^2-(2,3,5,6-tetrafluoro-3′-(trifluoromethoxy)-[1,1′-biphenyl]-4-yl)cyclopent-1-ene-1,2-dicarboxamide]
- pIC50 [1, 16]: > 7.00
- human URAT1 uptake transporter stimulation @ 10 μM [2]: 72%
- pEC50 (SARS-CoV-2): 4.60 to 5.00

Structure (SMILES): CS(=O)(=O)NC(=O)C1=C(C(=O)Nc2c(F)c(F)c(-c3cccc(OC(F)(F)F)c3)c(F)c2F)CCC1 [Example 1, N^1-(Methylsulfonyl)-N^2-(2,3,5,6-tetrafluoro-3′-(trifluoromethoxy)-[1,1′-biphenyl]-4-yl)cyclopent-1-ene-1,2-dicarboxamide]
- pIC50 [1, 16]: > 7.00
- AUC ([3]; female mice): 7350 ng·h/mL
- Cmax ([3]; female mice): 1320 ng/mL
- AUC ([3]; male mice): 3200 ng·h/mL
- Cmax ([3]; male mice): 754 ng/mL
- F ([3]; female mice): ♀ 217%
- half-life ([3]; female): 2.8 h
- F ([3]; male mice): ♂ 49%
- half-life ([3]; male): 2.9 h
- antiviral effect in combination with EIDD-1931 (SARS-CoV-2 d6-YFP): synergistic antiviral effect
- antiviral effect in combination with EIDD-1931 (SARS-CoV-2 d6-YFP; listed as Compound 1): synergistic antiviral effects
- human URAT1 uptake transporter stimulation @ 10 μM [2]: 28%
- pEC50 (SARS-CoV-2): 4.60 to 5.00
- solubility [4]: 237 µM (≈ 128 µg/mL)

Structure (SMILES): O=C(Nc1c(F)c(F)c(-c2cccc(OC(F)(F)F)c2)c(F)c1F)C1=C(c2nn[nH]n2)CCC1 [Example 3, N-(2,3,5,6-Tetrafluoro-3′-(trifluoromethoxy)-[1,1′-biphenyl]-4-yl)-2-(2H-tetrazol-5-yl)cyclopent-1-ene-1-carboxamide]
- pIC50 [1]: 6.00 to 7.00
- human URAT1 uptake transporter stimulation @ 10 μM [2]: <20%
- pEC50 (SARS-CoV-2): > 5.00
- solubility [4]: 207 µM (≈ 101 µg/mL)

Structure (SMILES): [2H]C([2H])([2H])Oc1cccc(-c2cc(F)c(NC(=O)C3=C(C(=O)NS(N)(=O)=O)CCC3)c(F)c2)c1 [Example 2/1]
- pIC50 [1, 16]: > 7.00
- AUC ([3]; female mice): 8610 ng·h/mL
- Cmax ([3]; female mice): 2280 ng/mL
- AUC ([3]; male mice): 3070 ng·h/mL
- Cmax ([3]; male mice): 1500 ng/mL
- F ([3]; female mice): ♀ 144%
- half-life ([3]; female): 2.4 h
- F ([3]; male mice): ♂ 60%
- half-life ([3]; male): 3.1 h
- human URAT1 uptake transporter stimulation @ 10 μM [2]: 22%
- logD [5, 17]: 0.5
- pEC50 (SARS-CoV-2): < 4.30
- solubility [4]: 235 µM (≈ 107 µg/mL)

Structure (SMILES): [2H]C([2H])([2H])Oc1cccc(-c2cc(F)c(NC(=O)C3=C(C(=O)NOC)CCC3)c(F)c2)c1 [Example 4]
- AUC ([3]; female mice): 1210 ng·h/mL
- Cmax ([3]; female mice): 690 ng/mL
- AUC ([3]; male mice): 1780 ng·h/mL
- Cmax ([3]; male mice): 1110 ng/mL
- F ([3]; female mice): ♀ 87%
- half-life ([3]; female): 1.3 h
- F ([3]; male mice): ♂ 63%
- half-life ([3]; male): 1.1 h
- pEC50 (human rhinovirus HRV-14): 5.66
- human URAT1 uptake transporter stimulation @ 10 μM [2]: 26%
- CC50 [6]: > 25000 nM
- pEC50 (SARS-CoV-2): > 5.00
- recovery at 10 μM ([7]; A-B direction, read-out: recovery (A-B)): 60%
- recovery at 10 μM ([7]; B-A direction, read-out: recovery (B-A)): 52%
- Papp A→B at 10 μM ([7]; Caco-2, 10 μM, pH 7.4/7.4): 1.6 ×10⁻⁶ cm/s
- Papp B→A at 10 μM ([7]; Caco-2, 10 μM, pH 7.4/7.4): 0.26 ×10⁻⁶ cm/s

Structure (SMILES): [2H]C([2H])([2H])Oc1cccc(-c2cc(F)c(NC(=O)C3=C(C(=O)NOC)CCC3)c(F)c2)c1 [Comparative Example C1, reference compound]
- solubility [8]: 220 µM (≈ 89.2 µg/mL)
- human URAT1 uptake transporter stimulation @ 10 μM [2]: 173%
- logD ([5]; pH 7.4): 1.0
- A-B permeability (Caco-2 monolayer): 0.068 ×10⁻⁶ cm/s
- B-A permeability (Caco-2 monolayer): 0.88 ×10⁻⁶ cm/s

Structure (SMILES): [2H]C([2H])([2H])Oc1cccc(-c2cc(F)c(NC(=O)c3ccsc3C(=O)NOC)c(F)c2)c1 [Example 9, N3-(3,5-Difluoro-3′-(methoxy-d3)-[1,1′-biphenyl]-4-yl)-N2-methoxythiophene-2,3-di-carboxamide]
- microsomal CLint ([9]; female): 55.5 µL/min/mg
- microsomal CLint ([9]; male): 76.5 µL/min/mg
- pIC50 (RSV-A2): > 7.00
- pIC50 (RSV-B): > 7.00
- pIC50 [1, 16]: > 7.00
- pEC50 (human rhinovirus HRV-14; HRV-14, read-out: EC50): 7.85
- microsomal CLint ([10]; female): 63.8 µL/min/mg
- microsomal CLint ([10]; male): 183 µL/min/mg
- pIC50 (RSV-Long): > 7.00
- pEC50 [11]: 7.14
- AUC(0-t) ([12]; C57BL/6J, mouse, in vivo, female mice, 0 to 8 h): 12300 ng·h/mL
- Cmax ([12]; C57BL/6J, mouse, in vivo, female mice, 5 mg/kg oral, 1 mg/kg intravenous cassette): 3000 ng/mL
- F ([12]; female mice, bioavailability): 49%
- half-life ([12]; female, C57BL/6J, mouse, in vivo): 2.6 h
- CC50 [6]: > 25000 nM
- pEC50 (SARS-CoV-2): > 6.00
- CC50 at 2 days (in vitro [13]): 45300 nM

Structure (SMILES): CCOC(=O)c1ccc(OCCC2CCN(c3ccc(C)nn3)CC2)cc1 [pirodavir]
- pEC50 (human rhinovirus HRV-14; HRV-14, read-out: EC50): 9.52
- CC50 (in vitro [14]): 4500 nM

Structure (SMILES): [2H]C([2H])([2H])Oc1cccc(-c2cc(F)c(NC(=O)C3=C(C(=O)NS(C)(=O)=O)CCC3)c(F)c2)c1 [Example 1/1]
- human URAT1 uptake transporter stimulation @ 10 μM [2]: <20%
- logD [5, 17]: 0.9
- pEC50 (SARS-CoV-2): 4.30 to 4.60
- solubility [4]: 227 µM (≈ 103 µg/mL)

Structure (SMILES): [2H]C([2H])([2H])Oc1cccc(-c2cc(F)c(NC(=O)c3ccsc3C(=O)NOCCO)c(F)c2)c1 [Example 9/1]
- microsomal CLint ([9]; female): 40.4 µL/min/mg
- microsomal CLint ([9]; male): 67.2 µL/min/mg
- pIC50 [1, 16]: > 7.00
- microsomal CLint ([10]; female): 52.8 µL/min/mg
- microsomal CLint ([10]; male): 162 µL/min/mg
- pEC50 (SARS-CoV-2): > 6.00

Structure (SMILES): COc1cccc(-c2ccc(NC(=O)C3=C(C(=O)O)CCC3)c(F)c2)c1 [vidofludimus, 2-((3-fluoro-3′-methoxy-[1,1′-biphenyl]-4-yl)carbamoyl)cyclopent-1-ene-1-carboxylic acid]
- blood uric acid levels [15]: decrease
- urine red blood cell count [15]: increase
